Results taken from ChEMBL document CHEMBL4627293, “Synthesis and in vitro activity of asymmetric indole-based bisamidine compounds against Gram-positive and Gram-negative pathogens” (2020).
Values after ≈ are worked out from the molar mass of the structure shown.

Columns and labels:
Format in all cases: functional
Staphylococcus aureus [1] = assay: Antimicrobial activity against methicillin-sensitive Staphylococcus aureus ATCC 29213
Staphylococcus aureus [2] = assay: Antimicrobial activity against methicillin- resistant Staphylococcus aureus ATCC 33591
Enterococcus faecalis [3] = assay: Antimicrobial activity against Vancomycin-sensitive Enterococcus faecalis ATCC 29212
Enterococcus faecalis [4] = assay: Antimicrobial activity against Vancomycin-resistant Enterococcus faecalis ATCC 51299
Escherichia coli [5] = assay: Antimicrobial activity against Escherichia coli ATCC 25922
Klebsiella pneumoniae [6] = assay: Antimicrobial activity against ESBL-producing Klebsiella pneumoniae ATCC 700603
Klebsiella pneumoniae [7] = assay: Antimicrobial activity against NDM-1 producing Klebsiella pneumoniae ATCC BAA-2146
Pseudomonas aeruginosa [8] = assay: Antimicrobial activity against Pseudomonas aeruginosa ATCC 27853
Citrobacter freundii [9] = assay: Antimicrobial activity against Citrobacter freundii ATCC 43864
Providencia rettgeri = assay: Antimicrobial activity against Providencia rettgeri ATCC 31052
Proteus vulgaris = assay: Antimicrobial activity against Proteus vulgaris ATCC 29905
[10] = test system: Staphylococcus epidermidis; assay: Antimicrobial activity against methicillin-susceptible Staphylococcus epidermidis ATCC 12228
Enterococcus faecium = assay: Antimicrobial activity against vancomycin-resistant Enterococcus faecium ATCC 700221
Klebsiella pneumoniae [11] = assay: Antimicrobial activity against Klebsiella pneumoniae 7
[12] = test system: Acinetobacter calcoaceticus; assay: Antimicrobial activity against Acinetobacter calcoaceticus ATCC 19606
Klebsiella pneumoniae [13] = assay: Potency index, ratio of MIC for Levofloxacin to MIC for test compound against NDM-1 producing Klebsiella pneumoniae ATCC BAA-2146
Klebsiella aerogenes = assay: Antimicrobial activity against Enterobacter aerogenes ATCC 45102
Escherichia coli [14] = assay: Potency index, ratio of MIC for 2-[4-[4-[6-(N,N-dimethylcarbamimidoyl)-1H-indol-2-yl]phenoxy]phenyl]-N,N-dimethyl-1H-indole-6-carboxamidine to MIC for test compound against Escherichia coli ATCC 25922
Klebsiella pneumoniae [15] = assay: Potency index, ratio of MIC for 2-[4-[4-[6-(N,N-dimethylcarbamimidoyl)-1H-indol-2-yl]phenoxy]phenyl]-N,N-dimethyl-1H-indole-6-carboxamidine to MIC for test compound against ESBL-producing Klebsiella pneumoniae ATCC 700603
Klebsiella pneumoniae [16] = assay: Potency index, ratio of MIC for 2-[4-[4-[6-(N,N-dimethylcarbamimidoyl)-1H-indol-2-yl]phenoxy]phenyl]-N,N-dimethyl-1H-indole-6-carboxamidine to MIC for test compound against Klebsiella pneumoniae 7
Klebsiella pneumoniae [17] = assay: Potency index, ratio of MIC for 2-[4-[4-[6-(N,N-dimethylcarbamimidoyl)-1H-indol-2-yl]phenoxy]phenyl]-N,N-dimethyl-1H-indole-6-carboxamidine to MIC for test compound against NDM-1 producing Klebsiella pneumoniae ATCC BAA-2146
Pseudomonas aeruginosa [18] = assay: Potency index, ratio of MIC for 2-[4-[4-[6-(N,N-dimethylcarbamimidoyl)-1H-indol-2-yl]phenoxy]phenyl]-N,N-dimethyl-1H-indole-6-carboxamidine to MIC for test compound against Pseudomonas aeruginosa ATCC 27853
Citrobacter freundii [19] = assay: Potency index, ratio of MIC for 2-[4-[4-[6-(N,N-dimethylcarbamimidoyl)-1H-indol-2-yl]phenoxy]phenyl]-N,N-dimethyl-1H-indole-6-carboxamidine to MIC for test compound against Citrobacter freundii ATCC 43864

SMILES: COc1cc(Oc2ccc(-c3cc4ccc(C(=N)N(C)C)cc4[nH]3)cc2)ccc1-c1cc2ccc(C(=N)N(C)C)cc2[nH]1
- MIC (Staphylococcus aureus [1]): 0.25 µg/mL (≈ 0.438 µM)
- MIC (Staphylococcus aureus [2]): 0.25 µg/mL (≈ 0.438 µM)
- MIC (Enterococcus faecalis [3]): 0.5 µg/mL (≈ 0.876 µM)
- MIC (Enterococcus faecalis [4]): 0.5 µg/mL (≈ 0.876 µM)
- MIC (Escherichia coli [5]): 2 µg/mL (≈ 3.5 µM)
- MIC (Klebsiella pneumoniae [6]): 8 µg/mL (≈ 14 µM)
- MIC (Klebsiella pneumoniae [7]): 8 µg/mL (≈ 14 µM)
- MIC (Pseudomonas aeruginosa [8]): 128 µg/mL (≈ 224 µM)
- MIC (Citrobacter freundii [9]): 4 µg/mL (≈ 7.01 µM)
- MIC (Providencia rettgeri): 8 µg/mL (≈ 14 µM)
- MIC (Proteus vulgaris): 8 µg/mL (≈ 14 µM)
- MIC [10]: 0.25 µg/mL (≈ 0.438 µM)
- MIC (Enterococcus faecium): 1 µg/mL (≈ 1.75 µM)
- MIC (Klebsiella pneumoniae [11]): 8 µg/mL (≈ 14 µM)
- MIC [12]: 64 µg/mL (≈ 112 µM)
- Ratio (Klebsiella pneumoniae [13]): 16

SMILES: CNC(=N)c1ccc2cc(-c3ccc(Oc4ccc(-c5cc6ccc(C(=N)NC)cc6[nH]5)cc4)cc3)[nH]c2c1
- MIC (Staphylococcus aureus [1]): 1 µg/mL (≈ 1.95 µM)
- MIC (Staphylococcus aureus [2]): 1 µg/mL (≈ 1.95 µM)
- MIC (Enterococcus faecalis [3]): 1 µg/mL (≈ 1.95 µM)
- MIC (Enterococcus faecalis [4]): 1 µg/mL (≈ 1.95 µM)
- MIC (Escherichia coli [5]): 128 µg/mL (≈ 250 µM)
- MIC (Klebsiella pneumoniae [6]): > 128 µg/mL
- MIC (Klebsiella pneumoniae [7]): > 128 µg/mL
- MIC (Pseudomonas aeruginosa [8]): > 128 µg/mL
- MIC (Klebsiella aerogenes): > 128 µg/mL
- MIC (Citrobacter freundii [9]): > 128 µg/mL
- MIC (Providencia rettgeri): > 128 µg/mL
- MIC (Proteus vulgaris): > 128 µg/mL

SMILES: CN(C)C(=N)c1ccc2cc(-c3ccc(Oc4ccc(-c5cc6ccc(C(=N)N(C)C)cc6[nH]5)nc4)cc3)[nH]c2c1
- MIC (Staphylococcus aureus [1]): 0.125 µg/mL (≈ 0.231 µM)
- MIC (Staphylococcus aureus [2]): 0.125 µg/mL (≈ 0.231 µM)
- MIC (Enterococcus faecalis [3]): 0.5 µg/mL (≈ 0.923 µM)
- MIC (Enterococcus faecalis [4]): 0.5 µg/mL (≈ 0.923 µM)
- MIC (Escherichia coli [5]): 1 µg/mL (≈ 1.85 µM)
- MIC (Klebsiella pneumoniae [6]): 4 µg/mL (≈ 7.38 µM)
- MIC (Klebsiella pneumoniae [7]): 2 µg/mL (≈ 3.69 µM)
- MIC (Pseudomonas aeruginosa [8]): 32 µg/mL (≈ 59.1 µM)
- MIC (Citrobacter freundii [9]): 2 µg/mL (≈ 3.69 µM)
- MIC (Providencia rettgeri): 4 µg/mL (≈ 7.38 µM)
- MIC (Proteus vulgaris): 4 µg/mL (≈ 7.38 µM)
- MIC [10]: 0.25 µg/mL (≈ 0.462 µM)
- MIC (Enterococcus faecium): 1 µg/mL (≈ 1.85 µM)
- MIC (Klebsiella pneumoniae [11]): 2 µg/mL (≈ 3.69 µM)
- MIC [12]: 64 µg/mL (≈ 118 µM)
- Ratio (Escherichia coli [14]): 4
- Ratio (Klebsiella pneumoniae [15]): 4
- Ratio (Klebsiella pneumoniae [16]): 4
- Ratio (Klebsiella pneumoniae [17]): 4
- Ratio (Pseudomonas aeruginosa [18]): 4
- Ratio (Citrobacter freundii [19]): 4

SMILES: CC(C)NC(=N)c1ccc2cc(-c3ccc(Oc4ccc(-c5cc6ccc(C(=N)NC(C)C)cc6[nH]5)c(Cl)c4)cc3)[nH]c2c1
- MIC (Staphylococcus aureus [1]): 8 µg/mL (≈ 13.3 µM)
- MIC (Staphylococcus aureus [2]): 8 µg/mL (≈ 13.3 µM)
- MIC (Enterococcus faecalis [3]): 16 µg/mL (≈ 26.5 µM)
- MIC (Enterococcus faecalis [4]): 16 µg/mL (≈ 26.5 µM)
- MIC (Escherichia coli [5]): 128 µg/mL (≈ 212 µM)
- MIC (Klebsiella pneumoniae [6]): > 128 µg/mL
- MIC (Klebsiella pneumoniae [7]): > 128 µg/mL
- MIC (Pseudomonas aeruginosa [8]): > 128 µg/mL
- MIC (Citrobacter freundii [9]): > 128 µg/mL
- MIC (Providencia rettgeri): > 128 µg/mL
- MIC (Proteus vulgaris): > 128 µg/mL
- MIC [10]: 1 µg/mL (≈ 1.66 µM)
- MIC (Enterococcus faecium): 8 µg/mL (≈ 13.3 µM)
- MIC (Klebsiella pneumoniae [11]): > 128 µg/mL
- MIC [12]: > 128 µg/mL

SMILES: C[C@H]1COc2c(N3CCN(C)CC3)c(F)cc3c(=O)c(C(=O)O)cn1c23.C[C@H]1COc2c(N3CCN(C)CC3)c(F)cc3c(=O)c(C(=O)O)cn1c23.O [LEVOFLOXACIN]
- MIC (Staphylococcus aureus [1]): 0.25 µg/mL
- MIC (Staphylococcus aureus [2]): 0.25 µg/mL
- MIC (Enterococcus faecalis [3]): 1 µg/mL
- MIC (Enterococcus faecalis [4]): 1 µg/mL
- MIC (Klebsiella pneumoniae [6]): 2 µg/mL
- MIC (Klebsiella pneumoniae [7]): > 128 µg/mL
- MIC (Klebsiella aerogenes): 0.25 µg/mL
- MIC (Citrobacter freundii [9]): 0.03 µg/mL
- MIC (Providencia rettgeri): 0.125 µg/mL
- MIC (Proteus vulgaris): 0.125 µg/mL
- MIC [10]: 0.25 µg/mL
- MIC (Enterococcus faecium): 32 µg/mL
- MIC (Klebsiella pneumoniae [11]): 16 µg/mL
- MIC [12]: 0.25 µg/mL

SMILES: C/N=C(\NC)c1ccc2cc(-c3ccc(Oc4ccc(-c5cc6ccc(/C(=N\C)NC)cc6[nH]5)cc4)cc3)[nH]c2c1
- MIC (Staphylococcus aureus [1]): 8 µg/mL (≈ 14.8 µM)
- MIC (Staphylococcus aureus [2]): 8 µg/mL (≈ 14.8 µM)
- MIC (Enterococcus faecalis [3]): 8 µg/mL (≈ 14.8 µM)
- MIC (Enterococcus faecalis [4]): 16 µg/mL (≈ 29.6 µM)
- MIC (Escherichia coli [5]): 64 µg/mL (≈ 118 µM)
- MIC (Klebsiella pneumoniae [6]): > 128 µg/mL
- MIC (Klebsiella pneumoniae [7]): 128 µg/mL (≈ 237 µM)
- MIC (Pseudomonas aeruginosa [8]): > 128 µg/mL
- MIC (Klebsiella aerogenes): > 128 µg/mL
- MIC (Citrobacter freundii [9]): > 128 µg/mL
- MIC (Providencia rettgeri): > 128 µg/mL
- MIC (Proteus vulgaris): > 128 µg/mL

SMILES: C/N=C(\NC)c1ccc2cc(-c3ccc(Oc4ccc(-c5cc6ccc(C(=N)NC)cc6[nH]5)cc4)cc3)[nH]c2c1
- MIC (Staphylococcus aureus [1]): 0.5 µg/mL (≈ 0.949 µM)
- MIC (Staphylococcus aureus [2]): 0.25 µg/mL (≈ 0.475 µM)
- MIC (Enterococcus faecalis [3]): 1 µg/mL (≈ 1.9 µM)
- MIC (Enterococcus faecalis [4]): 0.25 µg/mL (≈ 0.475 µM)
- MIC (Escherichia coli [5]): 16 µg/mL (≈ 30.4 µM)
- MIC (Klebsiella pneumoniae [6]): 64 µg/mL (≈ 122 µM)
- MIC (Klebsiella pneumoniae [7]): 32 µg/mL (≈ 60.8 µM)
- MIC (Pseudomonas aeruginosa [8]): 64 µg/mL (≈ 122 µM)
- MIC (Klebsiella aerogenes): 64 µg/mL (≈ 122 µM)
- MIC (Citrobacter freundii [9]): 128 µg/mL (≈ 243 µM)
- MIC (Providencia rettgeri): 128 µg/mL (≈ 243 µM)
- MIC (Proteus vulgaris): 128 µg/mL (≈ 243 µM)

SMILES: CC(C)NC(=N)c1ccc2cc(-c3ccc(Oc4ccc(-c5cc6ccc(C(=N)NC(C)C)cc6[nH]5)c(C(F)(F)F)c4)cn3)[nH]c2c1
- MIC (Staphylococcus aureus [1]): 0.5 µg/mL (≈ 0.784 µM)
- MIC (Staphylococcus aureus [2]): 0.5 µg/mL (≈ 0.784 µM)
- MIC (Enterococcus faecalis [3]): 0.5 µg/mL (≈ 0.784 µM)
- MIC (Enterococcus faecalis [4]): 0.5 µg/mL (≈ 0.784 µM)
- MIC (Escherichia coli [5]): 8 µg/mL (≈ 12.5 µM)
- MIC (Klebsiella pneumoniae [6]): 16 µg/mL (≈ 25.1 µM)
- MIC (Klebsiella pneumoniae [7]): 16 µg/mL (≈ 25.1 µM)
- MIC (Pseudomonas aeruginosa [8]): 32 µg/mL (≈ 50.2 µM)
- MIC (Citrobacter freundii [9]): 8 µg/mL (≈ 12.5 µM)
- MIC (Providencia rettgeri): 32 µg/mL (≈ 50.2 µM)
- MIC (Proteus vulgaris): 16 µg/mL (≈ 25.1 µM)
- MIC [10]: 0.5 µg/mL (≈ 0.784 µM)
- MIC (Enterococcus faecium): 0.5 µg/mL (≈ 0.784 µM)
- MIC (Klebsiella pneumoniae [11]): 16 µg/mL (≈ 25.1 µM)
- MIC [12]: 32 µg/mL (≈ 50.2 µM)

SMILES: CNC(=N)c1ccc2cc(-c3ccc(Oc4ccc(-c5cc6ccc(C(=N)NC)cc6[nH]5)c(OC)c4)cc3)[nH]c2c1
- MIC (Staphylococcus aureus [1]): 1 µg/mL (≈ 1.84 µM)
- MIC (Staphylococcus aureus [2]): 1 µg/mL (≈ 1.84 µM)
- MIC (Enterococcus faecalis [3]): 0.5 µg/mL (≈ 0.921 µM)
- MIC (Enterococcus faecalis [4]): 0.5 µg/mL (≈ 0.921 µM)
- MIC (Escherichia coli [5]): 16 µg/mL (≈ 29.5 µM)
- MIC (Klebsiella pneumoniae [6]): 128 µg/mL (≈ 236 µM)
- MIC (Klebsiella pneumoniae [7]): 32 µg/mL (≈ 59 µM)
- MIC (Pseudomonas aeruginosa [8]): > 128 µg/mL
- MIC (Citrobacter freundii [9]): 32 µg/mL (≈ 59 µM)
- MIC (Providencia rettgeri): > 128 µg/mL
- MIC (Proteus vulgaris): 128 µg/mL (≈ 236 µM)
- MIC [10]: 0.25 µg/mL (≈ 0.461 µM)
- MIC (Enterococcus faecium): 1 µg/mL (≈ 1.84 µM)
- MIC (Klebsiella pneumoniae [11]): 64 µg/mL (≈ 118 µM)
- MIC [12]: > 128 µg/mL
